From patent US20080124376A1, “OCULAR DEVICES AND METHODS OF MAKING AND USING THEREOF” (NOVARTIS AG, priority 2006, published 2008)
Where a name gives a salt, the structure may show the parent alone. Each block holds one molecule with its values, some of them ahead of it.

Tests used:
Type in all cases: physicochemical
[1] = Drug uptake via absorption into the Dailies matrix from soak solution
Description: Cromolyn sodium was strongly absorbed by the Dailies matrix. The amount absorbed from a 4% concentration (equivalent to an ophthalmic solution) soak solution was on the order of 1 mg. Approximately 100 μg was released passively during a short burst period, leaving some 900 μg for release by trigger mechanism.
Ketotifen fumarate was used at much lower levels in ophthalmic solution (0.025%) than cromolyn sodium, which was reflected in the uptake experiments. Ketotifen fumarate was absorbed from a 0.025% solution into the lens at a level of 35 μg, with a modest amount released during a short burst period, leaving approximately 30 μg retained in the matrix. This is a very significant payload in relation to daily requirements.

[2] = Passive diffusion release from drug-loaded lens / Nelfilcon membrane discs
Description: Cromolyn sodium was strongly absorbed by the […] matrix. The amount absorbed from a 4% concentration (equivalent to an ophthalmic solution) soak solution was on the order of 1 mg. Approximately 100 μg was released passively during a short burst period, leaving some 900 μg for release by trigger mechanism. […] A mixture of Nelfilcon and cromolyn sodium was polymerised to form a membrane, and 1.5 cm diameter discs were cut out and the release profile examined. The release profile of the directly loaded and the absorbed drug described above were compared. Direct loading levels were much lower (approx. 20 μg per lens) than the 1 mg per lens absorbed from a 4% solution. […] Ketotifen fumarate was used at much lower levels in ophthalmic solution (0.025%) than cromolyn sodium, which was reflected in the uptake experiments. Ketotifen fumarate was absorbed from a 0.025% solution into the lens at a level of 35 μg, with a modest amount released during a short burst period, leaving approximately 30 μg retained in the matrix. This is a very significant payload in relation to daily requirements. […] A mixture of Nelfilcon and ketotifen fumarate was polymerised to form a membrane, and 1.5 cm diameter discs were cut out and the release profile examined. The release profile of the directly loaded and the absorbed drug described above were compared. As with cromolyn sodium, the matrix distribution of the drug loaded directly into the polymer matrix produced differences in release behaviour compared to the absorbed drug.

[3] = Trigger release in vortex eye model (in vitro in-eye release model); conditions: for triggered release: in eye model (vortex); for trigger release following passive diffusion: drug loaded via absorption into Dailies matrix
Description: The vortex model is the in vitro in-eye release model described in commonly owned copending US Patent Application Publication No. 2006/0251696 A1 (herein incorporated by reference in its entirety). The experiment is carried out as follows. A contact lens is first blotted dry and immediately is carefully placed into 100 microliter of an extraction medium in an tube (e.g., a centrifuge tube, a scintillation vial, or preferably an Eppendorf microtube) and the microtube is agitated for fifteen seconds using, e.g., a Vibrex vortex mixer. At the end of one hour period, the tube is again agitated using, e.g., a Vibrex vortex mixer, for a further fifteen seconds. The extraction medium is removed from the Eppendorf microtube and 100 microliter of a fresh extraction medium is added. Extraction samples are stored at 25° C. between agitation procedures. The concentration of a guest material extracted out of a lens can be determined according to any methods known to a person skilled in the art.

[4] = Release of hyaluronan from Nelfilcon matrix in artificial lacrimal solution
Description: Using the techniques above, a mixture of Nelfilcon and varying amounts of hyaluronan was polymerised to form a membrane. The amount of hyaluronan loaded into the Nelfilcon macromer was 2, 6.5, and 40 mg hyaluronan/g nelfilcon (30% by weight aqueous solution). The hyaluronan used was approximately 50 kDa, 100 kDa, and 1 million Da.
The release of hyaluronan from the membrane was investigated by varying the amount and length of the hyaluronan incorporated into the matrix. Release studies were performed by placing each lens in a solution of 5 mL of artificial lacrimal solution at 35° C.

[5] = Heat stability of Nelfilcon lens with hyaluronan; conditions: lens in 6.5 mg/mL hyaluronan solution, pH 11, 120° C. for 40 minutes; FIG. 3
Description: Heat stability studies were also performed on the membranes. A lens prepared from 6.5 mg/mL loading of 1 M Da hyaluronan was placed in a tube of 6.5 mg/mL solution of hyaluronan at a pH of 11. The tube was sealed with a total volume of 0.8 mL, and the solution was heated at 120° C. for 40 minutes.

[6] = Release of Rose Bengal from Nelfilcon lenses in PBS and lysozyme solution
[7] = Direct loading of drug into the Nelfilcon macromer (loading level); conditions: drug loaded directly into Nelfilcon macromer
Description: A mixture of Nelfilcon and cromolyn sodium was polymerised to form a membrane, and 1.5 cm diameter discs were cut out and the release profile examined. The release profile of the directly loaded and the absorbed drug described above were compared. Direct loading levels were much lower (approx. 20 μg per lens) than the 1 mg per lens absorbed from a 4% solution.

[8] = Aqueous passive and agitated release from ASM981-loaded Nelfilcon membrane; conditions: membrane of 1% ASM981 in Nelfilcon
Description: The addition of Pimecrolimus (SDZ ASM981), which is synthesized by Novartis Pharma, in solution form to Nelfilcon macromer increases the liquid content of the macromer. Simple addition of the ASM981 consequently diluted the macromer and photopolymerisation produced wet structurally incoherent product. A membrane composed of 1% ASM981 was prepared by adding 1 g of the ASM981 solution to 5 g of nelfilcon macromer, vortexing for approximately 5 minutes, and removing the lid of the vial to remove excess water. The mass of the ASM981-loaded macromer was allowed to return to its original 5 g. This was conveniently achieved by leaving the mixture overnight on a flatbed shaker under a nitrogen blanket. The mixture was then placed in a membrane mould and polymerised under a static UV lamp. The mixture was successfully polymerised to form a coherent membrane, and the resultant membrane was opaque in appearance.

[9] = drug loaded directly into Nelfilcon macromer

- release in PBS solution with no lysozyme ([6]; Nelfilcon lens, approximately minute 150, FIG. 4): little to no Rose Bengal was released
- release in a solution of lysozyme ([6]; Nelfilcon lens, from minute zero, FIG. 4): released steadily
Molecule: O=C([O-])c1c(Cl)c(Cl)c(Cl)c(Cl)c1-c1c2cc(I)c(=O)c(I)c-2oc2c(I)c([O-])c(I)cc12.[Na+].[Na+] [Rose Bengal]
- stability of loaded lens in saline solutions ([6]; Nelfilcon lens loaded with Rose Bengal): stable in saline solutions for extended periods of time

- effect of increasing the amount of hyaluronan on release ([4]; 2, 6.5, 40 mg hyaluronan/g nelfilcon, FIG. 2): significantly affects the release
Molecule: hyaluronan

More lines, now with the values behind:

Molecule: CN1CCC(=C2c3ccccc3CC(=O)c3sccc32)CC1 [Ketotifen fumarate]
- amount absorbed into the lens ([1]; 0.025% solution): 35 µg
- amount released during a short burst period ([2]; drug absorbed into Dailies matrix from 0.025% solution): modest amount
- amount retained in the matrix ([2]; drug absorbed into Dailies matrix from 0.025% solution, after burst): approximately 30 μg
- time for passive diffusion to come to equilibrium [2, 9]: three
- effect of albumin on trigger release ([3]; drug absorbed into Dailies matrix, albumin): little effect
- effect of positively charged proteins such as lysozyme on trigger release ([3]; drug absorbed into Dailies matrix, lysozyme): significant enhanced effect
- triggered release [3, 9]: very effective further release
- effect of positively charged tear protein (lysozyme) on trigger release ([3]; drug loaded directly into Nelfilcon macromer, vortex eye model): enhanced
- trigger release following passive diffusion ([3]; vortex eye model): enhanced triggered release susceptibility

Molecule: hyaluronan [1 M Da hyaluronan]
- release pattern (release rate) ([4]; loading 6.5 mg HA/g nelfilcon, 5 mL artificial lacrimal solution, 35° C., FIG. 1): relatively constant release rate from 2 to 48 hours
- heat stability: release over time after heating [5]: release curve is similar to that of the release of hyaluronan from the matrix that is not heated

Molecule: O=C(O)c1cc(=O)c2c(OCC(O)COc3cccc4oc(C(=O)O)cc(=O)c34)cccc2o1 [Cromolyn sodium]
- amount absorbed from soak solution ([1]; 4% concentration soak solution): ~1 mg
- amount released passively during a short burst period ([2]; drug absorbed into Dailies matrix from 4% solution): Approximately 100 μg
- amount left for release by trigger mechanism ([2]; drug absorbed into Dailies matrix from 4% solution, after burst): ~900 µg
- passive release ([2]; drug loaded directly into Nelfilcon macromer, 1.5 cm discs): virtually zero passive release
- triggered release [3, 9]: very significant triggered release
- trigger release following passive diffusion ([3]; vortex eye model): significant release
- direct loading level [7]: approx. 20 μg per lens

Molecule: CC[C@@H]1/C=C(\C)C[C@H](C)C[C@H](OC)[C@H]2O[C@@](O)(C(=O)C(=O)N3CCCC[C@H]3C(=O)O[C@H](/C(C)=C/[C@@H]3CC[C@H](Cl)[C@H](OC)C3)[C@H](C)[C@@H](O)CC1=O)[C@H](C)C[C@@H]2OC [ASM981, Pimecrolimus]
- aqueous passive and agitated release [8]: no release was observed
